Tested on: 556581-035-R-J1-PDC complex spheroid growth
Experiment: Anticancer human tumor 556581-035-R-J1-PDC patient-derived ovarian carcinoma cell line growth inhibition [AhR]
Conditions: for IC50: curve of first compound; for viability, T/C: stronger effect = lower value
Procedure, shortened: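 Spheroids combined tumor cells with HUVEC endothelial cells and human MSCs as stroma. AhR antagonists were paired with standard or investigational drugs, each dosed in half-log steps down from near clinical Cmax, or from 10 microM where Cmax was unknown.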

[1] = second compound 0.1 µM, first compound 0.0316 µM
[2] = second compound 0.1 µM, first compound 0.1 µM
[3] = second compound 0.1 µM, first compound 0.316 µM
[4] = second compound 0.1 µM, first compound 1 µM
[5] = second compound 0.1 µM, first compound 3.16 µM
[6] = second compound 0.1 µM, first compound 10 µM
[7] = second compound 0.316 µM, first compound 0.0316 µM
[8] = second compound 0.316 µM, first compound 0.1 µM
[9] = second compound 0.316 µM, first compound 0.316 µM
[10] = second compound 0.316 µM, first compound 1 µM
[11] = second compound 0.316 µM, first compound 3.16 µM
[12] = second compound 0.316 µM, first compound 10 µM
[13] = second compound 1 µM, first compound 0.0316 µM
[14] = second compound 1 µM, first compound 0.1 µM
[15] = second compound 1 µM, first compound 0.316 µM
[16] = second compound 1 µM, first compound 1 µM
[17] = second compound 1 µM, first compound 3.16 µM
[18] = second compound 1 µM, first compound 10 µM
[19] = second compound 3.16 µM, first compound 0.0316 µM
[20] = second compound 3.16 µM, first compound 0.1 µM
[21] = second compound 3.16 µM, first compound 0.316 µM
[22] = second compound 3.16 µM, first compound 1 µM
[23] = second compound 3.16 µM, first compound 3.16 µM
[24] = second compound 3.16 µM, first compound 10 µM
[25] = second compound 10 µM, first compound 0.0316 µM
[26] = second compound 10 µM, first compound 0.1 µM
[27] = second compound 10 µM, first compound 0.316 µM
[28] = second compound 10 µM, first compound 1 µM
[29] = second compound 10 µM, first compound 3.16 µM
[30] = second compound 10 µM, first compound 10 µM
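For viability, T/C in this document: compound exposure lasted 7 days; 100% = DMSO vehicle control growth.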

CC(C)c1c(-c2ccccc2)nc2c(C#N)c[nH]n2c1=O + Cc1ccccc1N=Nc1ccc(NC(=O)c2ccnn2C)c(C)c1
IC50 (second compound 0.1 µM): > 10000 nM
IC50 (second compound 0.316 µM): > 10000 nM
IC50 (second compound 1 µM): > 10000 nM
IC50 (second compound 3.16 µM): > 10000 nM
IC50 (second compound 10 µM): > 10000 nM
viability, T/C [1]: 106%
viability, T/C [2]: 111%
viability, T/C [3]: 103%
viability, T/C [4]: 104%
viability, T/C [5]: 97.7%
viability, T/C [6]: 93.4%
viability, T/C [7]: 96.7%
viability, T/C [8]: 94.1%
viability, T/C [9]: 107%
viability, T/C [10]: 96.1%
viability, T/C [11]: 85.5%
viability, T/C [12]: 103%
viability, T/C [13]: 110%
viability, T/C [14]: 108%
viability, T/C [15]: 96%
viability, T/C [16]: 106%
viability, T/C [17]: 106%
viability, T/C [18]: 95.8%
viability, T/C [19]: 95.6%
viability, T/C [20]: 92.2%
viability, T/C [21]: 104%
viability, T/C [22]: 83.6%
viability, T/C [23]: 96%
viability, T/C [24]: 87.9%
viability, T/C [25]: 94.7%
viability, T/C [26]: 86.8%
viability, T/C [27]: 80.9%
viability, T/C [28]: 91.5%
viability, T/C [29]: 84.5%
viability, T/C [30]: 76.9%

CC1COCCN1c1cc(-c2ccnn2C)c2ccnc(-c3ccn[nH]3)c2n1 (stereo not given) + Cc1ccccc1N=Nc1ccc(NC(=O)c2ccnn2C)c(C)c1
IC50 (second compound 0.1 µM): 894 nM
IC50 (second compound 0.316 µM): > 1000 nM
IC50 (second compound 1 µM): > 1000 nM
IC50 (second compound 3.16 µM): 752 nM
IC50 (second compound 10 µM): 883 nM
viability, T/C (second compound 0.1 µM, first compound 0.00316 µM): 104%
viability, T/C (second compound 0.1 µM, first compound 0.01 µM): 103%
viability, T/C [1]: 101%
viability, T/C [2]: 84.8%
viability, T/C [3]: 61.5%
viability, T/C [4]: 48.6%
viability, T/C (second compound 0.316 µM, first compound 0.00316 µM): 102%
viability, T/C (second compound 0.316 µM, first compound 0.01 µM): 119%
viability, T/C [7]: 101%
viability, T/C [8]: 76.8%
viability, T/C [9]: 63.9%
viability, T/C [10]: 51.8%
viability, T/C (second compound 1 µM, first compound 0.00316 µM): 99.6%
viability, T/C (second compound 1 µM, first compound 0.01 µM): 108%
viability, T/C [13]: 99.5%
viability, T/C [14]: 80%
viability, T/C [15]: 62.6%
viability, T/C [16]: 54.9%
viability, T/C (second compound 3.16 µM, first compound 0.00316 µM): 105%
viability, T/C (second compound 3.16 µM, first compound 0.01 µM): 103%
viability, T/C [19]: 94.8%
viability, T/C [20]: 72.6%
viability, T/C [21]: 63.8%
viability, T/C [22]: 45.4%
viability, T/C (second compound 10 µM, first compound 0.00316 µM): 88.9%
viability, T/C (second compound 10 µM, first compound 0.01 µM): 104%
viability, T/C [25]: 85.3%
viability, T/C [26]: 73.3%
viability, T/C [27]: 61%
viability, T/C [28]: 47.9%

COc1ccc([C@@H](O)c2cc(-c3ncnc4cc(N5CCOCC5)ccc34)c(F)cc2Cl)nn1 + Cc1ccccc1N=Nc1ccc(NC(=O)c2ccnn2C)c(C)c1
IC50 (second compound 0.1 µM): 5520 nM
IC50 (second compound 0.316 µM): 4750 nM
IC50 (second compound 1 µM): > 10000 nM
IC50 (second compound 3.16 µM): 5110 nM
IC50 (second compound 10 µM): 4400 nM
viability, T/C [1]: 107%
viability, T/C [2]: 104%
viability, T/C [3]: 102%
viability, T/C [4]: 78.2%
viability, T/C [5]: 59.4%
viability, T/C [6]: 41.3%
viability, T/C [7]: 104%
viability, T/C [8]: 97.2%
viability, T/C [9]: 100%
viability, T/C [10]: 78%
viability, T/C [11]: 55.8%
viability, T/C [12]: 41.2%
viability, T/C [13]: 112%
viability, T/C [14]: 106%
viability, T/C [15]: 110%
viability, T/C [16]: 75.5%
viability, T/C [17]: 56.4%
viability, T/C [18]: 47.1%
viability, T/C [19]: 89.1%
viability, T/C [20]: 95%
viability, T/C [21]: 89.1%
viability, T/C [22]: 74.6%
viability, T/C [23]: 56.8%
viability, T/C [24]: 41.5%
viability, T/C [25]: 97.8%
viability, T/C [26]: 93.4%
viability, T/C [27]: 87.3%
viability, T/C [28]: 76.9%
viability, T/C [29]: 50.4%
viability, T/C [30]: 44.8%

O=C(C=Cn1cnc(-c2cc(C(F)(F)F)cc(C(F)(F)F)c2)n1)NNc1cnccn1 + Cc1ccccc1N=Nc1ccc(NC(=O)c2ccnn2C)c(C)c1
IC50 (second compound 0.1 µM): > 3000 nM
IC50 (second compound 0.316 µM): 1750 nM
IC50 (second compound 1 µM): > 3000 nM
IC50 (second compound 3.16 µM): > 3000 nM
IC50 (second compound 10 µM): > 3000 nM
viability, T/C (second compound 0.1 µM, first compound 0.00949 µM): 100%
viability, T/C (second compound 0.1 µM, first compound 0.03 µM): 99.8%
viability, T/C (second compound 0.1 µM, first compound 0.0949 µM): 80.3%
viability, T/C (second compound 0.1 µM, first compound 0.3 µM): 78.5%
viability, T/C (second compound 0.1 µM, first compound 0.949 µM): 72.5%
viability, T/C (second compound 0.1 µM, first compound 3 µM): 54.4%
viability, T/C (second compound 0.316 µM, first compound 0.00949 µM): 106%
viability, T/C (second compound 0.316 µM, first compound 0.03 µM): 92.7%
viability, T/C (second compound 0.316 µM, first compound 0.0949 µM): 91%
viability, T/C (second compound 0.316 µM, first compound 0.3 µM): 73.3%
viability, T/C (second compound 0.316 µM, first compound 0.949 µM): 60.7%
viability, T/C (second compound 0.316 µM, first compound 3 µM): 40.8%
viability, T/C (second compound 1 µM, first compound 0.00949 µM): 93%
viability, T/C (second compound 1 µM, first compound 0.03 µM): 93.4%
viability, T/C (second compound 1 µM, first compound 0.0949 µM): 85.5%
viability, T/C (second compound 1 µM, first compound 0.3 µM): 84.4%
viability, T/C (second compound 1 µM, first compound 0.949 µM): 72.5%
viability, T/C (second compound 1 µM, first compound 3 µM): 49.7%
viability, T/C (second compound 3.16 µM, first compound 0.00949 µM): 80.3%
viability, T/C (second compound 3.16 µM, first compound 0.03 µM): 87.7%
viability, T/C (second compound 3.16 µM, first compound 0.0949 µM): 79.8%
viability, T/C (second compound 3.16 µM, first compound 0.3 µM): 68.4%
viability, T/C (second compound 3.16 µM, first compound 0.949 µM): 72.2%
viability, T/C (second compound 3.16 µM, first compound 3 µM): 60.4%
viability, T/C (second compound 10 µM, first compound 0.00949 µM): 81.1%
viability, T/C (second compound 10 µM, first compound 0.03 µM): 81.6%
viability, T/C (second compound 10 µM, first compound 0.0949 µM): 82.7%
viability, T/C (second compound 10 µM, first compound 0.3 µM): 82.4%
viability, T/C (second compound 10 µM, first compound 0.949 µM): 71.9%
viability, T/C (second compound 10 µM, first compound 3 µM): 56.9%

COc1cccc2c1C(=O)c1c(O)c3c(c(O)c1C2=O)CC(O)(C(=O)CO)CC3OC1CC(N)C(O)C(C)O1 (stereo not given) + Cc1cncc(-c2nc(NCCc3c[nH]c4ccccc34)c3ncn(C(C)C)c3n2)c1
IC50 (second compound 0.1 µM): 382 nM
IC50 (second compound 0.316 µM): 380 nM
IC50 (second compound 1 µM): 403 nM
IC50 (second compound 3.16 µM): 349 nM
IC50 (second compound 10 µM): 351 nM
viability, T/C [1]: 87%
viability, T/C [2]: 89.8%
viability, T/C [3]: 58.3%
viability, T/C [4]: 6.64%
viability, T/C [5]: 0.94%
viability, T/C [6]: 1.6%
viability, T/C [7]: 84.8%
viability, T/C [8]: 82.5%
viability, T/C [9]: 58.3%
viability, T/C [10]: 6.48%
viability, T/C [11]: 0.61%
viability, T/C [12]: 2.51%
viability, T/C [13]: 81.9%
viability, T/C [14]: 73.8%
viability, T/C [15]: 62.9%
viability, T/C [16]: 3.27%
viability, T/C [17]: 0.86%
viability, T/C [18]: 2.01%
viability, T/C [19]: 77.7%
viability, T/C [20]: 74.8%
viability, T/C [21]: 54.4%
viability, T/C [22]: 2.38%
viability, T/C [23]: 1.27%
viability, T/C [24]: 3.59%
viability, T/C [25]: 80.8%
viability, T/C [26]: 68.8%
viability, T/C [27]: 54.8%
viability, T/C [28]: 2.24%
viability, T/C [29]: 1.87%
viability, T/C [30]: 3.7%

From PubChem BioAssay AID1918999 (Molecular Pharmacology Branch, DTP, NCI, 2023)
